Data: US8063055B2, “Substituted pyridone compounds and methods of use” (Amgen Inc., priority 2007, dated 2011)
pIC50: −log10 of the molar value. Where two headings read alike, the source gives them in different places.

Tests used:
c-kit kinase enzyme = molecular target: T1, c-kit kinase enzyme (Homo sapiens, UniProt P10721); assay: C-kit Homogeneous Time Resolved Fluorescent (HTRF) kinase assay; type: biochemical; details: c-kit catalytic domain, biotinylated Her-2 peptide substrate, ATP
T1 construct: (catalytic domain, N-terminal GST tagged, unphosphorylated)
T1 sequence (P10721 589-937 limits assumed): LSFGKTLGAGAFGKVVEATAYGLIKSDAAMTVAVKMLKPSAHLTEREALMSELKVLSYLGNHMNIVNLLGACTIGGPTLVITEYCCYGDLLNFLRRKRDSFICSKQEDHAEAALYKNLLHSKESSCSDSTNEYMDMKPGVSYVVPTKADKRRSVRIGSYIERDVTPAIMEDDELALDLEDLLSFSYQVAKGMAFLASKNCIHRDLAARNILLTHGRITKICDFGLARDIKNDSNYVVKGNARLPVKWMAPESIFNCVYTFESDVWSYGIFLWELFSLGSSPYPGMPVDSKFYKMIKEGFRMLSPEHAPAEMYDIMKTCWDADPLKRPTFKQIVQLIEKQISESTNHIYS

[1] = test system: SCF-stimulated UT-7 cells; details: Homo sapiens
Source text: SCF and GM-CSF Stimulated UT7 Proliferation/Survival Assay:
The purpose of this assay is to test the general anti-proliferative/cytotoxic effect of small molecule compounds on SCF or GM-CSF-stimulated UT-7 cells. Preventing SCF stimulated proliferation/survival is consistent with an on-mechanism effect whereas inhibition of GM-CSF driven proliferation/survival is indicative of off-target effects. UT-7 is a factor dependent human megakaryoblastic leukemia cell line that can be grown in either IL-3, GM-CSF, EPO or SCF (these cells have been confirmed to carry wild type c-kit receptor). Cells are maintained in growth media (IMDM, 10% HI-FBS, 1×PGS, 1 ng/mL GM-CSF). […] Small molecule compounds are first diluted in 100% DMSO, then diluted 1:4 in RT assay media. […] The treated cells are incubated in a 37° C. humidified incubator with 5% CO2 for 3 days. The amount of ATP is then measured as a surrogate marker for cell viability. […] The amount of SCF or GM-CSF stimulated viable cells in the presence of compound compared with in the presence of vehicle alone (HI control) is calculated using the formula: % control (POC)=(cpd−average LO)/(average HI−average LO)*100. Data (consisting of POC and inhibitor concentration in μM) is fitted to a 4-parameter equation (y=A+((B−A)/(1+((x/C)^D))), where A is the minimum y (POC) value, B is the maximum y (POC), C is the x (cpd concentration) at the point of inflection and D is the slope factor) using a Levenburg-Marquardt non-linear regression algorithm.

[2] = UT7, 72 h, read-out: UT7 Proliferation cell assay data
[3] = read-out: HTRF Fret enzyme assay data
[4] = UT7, read-out: average IC50 value in the SCF stimulated UT7 proliferation and survival assay

SMILES | pIC50 (c-kit kinase enzyme; HTRF Fret enzyme assay data) | pIC50 [1, 2] | pIC50 (c-kit kinase enzyme; [3]) | pIC50 [1, 4]
Cc1ccn(-c2ccc(F)cc2)c(=O)c1-c1ccc2nc(N)ncc2c1 [Example 33, 3-(2-aminoquinazolin-6-yl)-1-(4-fluorophenyl)-4-methylpyridin-2(1H)-one] | 7.20 | 6.97 |  | 
Cc1ccn(-c2ccc(N3CCOCC3)cc2)c(=O)c1-c1ccc2nc(N)ncc2c1 [Example 34, 3-(2-aminoquinazolin-6-yl)-4-methyl-1-(4-morpholinophenyl)pyridin-2(1H)-one] |  | 7.14 | 7.89 | 
Cc1ccn(-c2ccc(CN3CCOCC3)cc2)c(=O)c1-c1ccc2nc(N)ncc2c1 [Example 35, 3-(2-aminoquinazolin-6-yl)-4-methyl-1-(4-(morpholinomethyl)phenyl)pyridin-2(1H)-one] | 7.51 | 6.70 |  | 
Cc1ccn(-c2ccc(-n3cccn3)cc2)c(=O)c1-c1ccc2nc(N)ncc2c1 [Example 38, 1-(4-(1H-pyrazol-1-yl)phenyl)-3-(2-aminoquinazolin-6-yl)-4-methylpyridin-2(1H)-one] |  | 7.74 | 8.00 | 
Cc1ccn(-c2ccc(F)c(F)c2)c(=O)c1-c1ccc2nc(N)ncc2c1 [Example 39, 3-(2-aminoquinazolin-6-yl)-1-(3,4-difluorophenyl)-4-methylpyridin-2(1H)-one] | 7.32 | 7.20 |  | 
Cc1ccn(-c2ccc(Cl)c(Cl)c2)c(=O)c1-c1ccc2nc(N)ncc2c1 [Example 40, 3-(2-aminoquinazolin-6-yl)-1-(3,4-dichlorophenyl)-4-methylpyridin-2(1H)-one] | 7.70 | 7.74 |  | 
Cc1ccc(-n2ccc(C)c(-c3ccc4nc(N)ncc4c3)c2=O)cc1Cl [Example 41, 3-(2-aminoquinazolin-6-yl)-1-(3-chloro-4-methylphenyl)-4-methylpyridin-2(1H)-one] | 8.09 | 7.92 |  | 
Cc1cc(-n2ccc(C)c(-c3ccc4nc(N)ncc4c3)c2=O)ccc1F [Example 42, 3-(2-aminoquinazolin-6-yl)-1-(4-fluoro-3-methylphenyl)-4-methylpyridin-2(1H)-one] |  | 7.74 | 7.85 | 
Cc1ccn(-c2ccc(F)c(C(F)(F)F)c2)c(=O)c1-c1ccc2nc(N)ncc2c1 [Example 43, 3-(2-aminoquinazolin-6-yl)-1-(4-fluoro-3-(trifluoromethyl)phenyl)-4-methylpyridin-2(1H)-one] | 7.67 | 7.39 |  | 
Cc1ccn(-c2ccc(F)c(Cl)c2)c(=O)c1-c1ccc2nc(N)ncc2c1 [Example 45, 3-(2-aminoquinazolin-6-yl)-1-(3-chloro-4-fluorophenyl)-4-methylpyridin-2(1H)-one] | 7.00 | 7.40 |  | 
Cc1ccn(-c2cc(Cl)cc(Cl)c2)c(=O)c1-c1ccc2nc(N)ncc2c1 [Example 46, 3-(2-aminoquinazolin-6-yl)-1-(3,5-dichlorophenyl)-4-methylpyridin-2(1H)-one] | 7.36 | 7.46 |  | 
Cc1ccn(CCC2CCCC2)c(=O)c1-c1ccc2nc(N)ncc2c1 [Example 52, 3-(2-aminoquinazolin-6-yl)-1-(2-cyclopentylethyl)-4-methylpyridin-2(1H)-one] | 9.09 | 7.62 |  | ≥ 6.00
CC(C)=CCn1ccc(C)c(-c2ccc3nc(N)ncc3c2)c1=O [Example 54, 3-(2-aminoquinazolin-6-yl)-4-methyl-1-(3-methylbut-2-enyl)pyridin-2(1H)-one] | 7.62 | 7.92 |  | ≥ 6.00
Cc1ccn(CCC(C)(C)C)c(=O)c1-c1ccc2nc(N)ncc2c1 [Example 57, 3-(2-aminoquinazolin-6-yl)-1-(3,3-dimethylbutyl)-4-methylpyridin-2(1H)-one] | 7.79 | 7.37 |  | 
CCC(C)CCn1ccc(C)c(-c2ccc3nc(N)ncc3c2)c1=O (stereo not shown) [Example 58, 3-(2-aminoquinazolin-6-yl)-4-methyl-1-(3-methylpentyl)pyridin-2(1H)-one] | 8.60 | 8.05 |  | 
Cc1ccn(CCC2CC2)c(=O)c1-c1ccc2nc(N)ncc2c1 [Example 59, 3-(2-aminoquinazolin-6-yl)-1-(2-cyclopropylethyl)-4-methylpyridin-2(1H)-one] | 7.10 | 7.55 |  | 
Cc1ccn(CCCC(C)C)c(=O)c1-c1ccc2nc(N)ncc2c1 [Example 61, 3-(2-aminoquinazolin-6-yl)-4-methyl-1-(4-methylpentyl)pyridin-2(1H)-one] | 8.95 | 8.40 |  | ≥ 6.00
